According to PMC3848040 (Science (New York, N.Y.), 2013):

Assays:
GTDC2dTM = target: T1, GTDC2dTM (Homo sapiens, UniProt Q8NAT1); assay: glycosyl transfer, gel filtration and NMR of product; type: biochemical
T1 sequence (Q8NAT1 26-580 limits assumed): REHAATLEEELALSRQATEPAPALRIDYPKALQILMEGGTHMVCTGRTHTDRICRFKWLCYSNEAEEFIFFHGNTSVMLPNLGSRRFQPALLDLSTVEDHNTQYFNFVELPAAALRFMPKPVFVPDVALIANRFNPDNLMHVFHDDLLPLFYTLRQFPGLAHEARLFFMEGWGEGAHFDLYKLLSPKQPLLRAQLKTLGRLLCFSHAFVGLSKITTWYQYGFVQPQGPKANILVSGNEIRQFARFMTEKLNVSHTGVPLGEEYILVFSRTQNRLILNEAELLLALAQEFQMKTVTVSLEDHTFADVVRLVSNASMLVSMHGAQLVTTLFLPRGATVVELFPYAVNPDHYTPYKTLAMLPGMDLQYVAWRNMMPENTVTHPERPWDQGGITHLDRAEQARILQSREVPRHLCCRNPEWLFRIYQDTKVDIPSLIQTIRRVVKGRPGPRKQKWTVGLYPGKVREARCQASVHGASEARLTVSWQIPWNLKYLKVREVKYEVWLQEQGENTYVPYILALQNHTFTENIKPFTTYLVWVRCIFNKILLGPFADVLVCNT

B3GALNT2dTM = target: T2, B3GALNT2dTM (Homo sapiens, UniProt Q8NCR0); assay: glycosyl transfer, MALDI-TOF/MS; type: biochemical; details: donor; acceptor GlcNAc-β4-Man-O-peptide
T2 sequence (Q8NCR0 24-500 limits assumed): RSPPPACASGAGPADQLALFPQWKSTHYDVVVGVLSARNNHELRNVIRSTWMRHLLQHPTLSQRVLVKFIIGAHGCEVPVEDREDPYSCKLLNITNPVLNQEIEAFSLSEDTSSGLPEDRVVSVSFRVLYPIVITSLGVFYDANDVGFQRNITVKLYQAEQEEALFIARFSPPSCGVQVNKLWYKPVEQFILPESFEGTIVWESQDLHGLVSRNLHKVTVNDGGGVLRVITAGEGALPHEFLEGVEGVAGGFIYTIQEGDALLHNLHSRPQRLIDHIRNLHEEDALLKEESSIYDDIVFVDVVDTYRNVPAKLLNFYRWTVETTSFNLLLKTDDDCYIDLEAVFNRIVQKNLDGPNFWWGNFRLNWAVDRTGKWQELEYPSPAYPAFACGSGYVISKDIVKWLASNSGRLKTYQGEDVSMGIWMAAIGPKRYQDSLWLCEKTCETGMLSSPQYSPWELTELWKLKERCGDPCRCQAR

CC(=O)N[C@H]1[C@@H](OP(=O)(O)OP(=O)(O)OC[C@H]2O[C@@H](n3ccc(=O)[nH]c3=O)[C@H](O)[C@@H]2O)O[C@H](CO)[C@@H](O)[C@@H]1O [UDP-GlcNAc]
glycosyl transfer, gel filtration and NMR of product (GTDC2dTM; donor, acceptor Man-α-MU): Reactant of the GTDC2dTM assay using Man-α-MU and UDP-GlcNAc was separated

Cc1cc(=O)oc2cc(O[C@H]3O[C@H](CO)[C@@H](O)[C@H](O)[C@@H]3O)ccc12 [Man-α-MU, 4-methylumbelliferyl-α-D-mannoside]
glycosyl transfer, gel filtration and NMR of product (GTDC2dTM; acceptor, donor UDP-GlcNAc): conducted the transfer assay using fluorescently labeled mannoside (4-methylumbelliferyl-α-D-mannoside; Man-α-MU) as the acceptor

CC(=O)N[C@H]1[C@@H](OP(=O)(O)OP(=O)(O)OC[C@H]2O[C@@H](n3ccc(=O)[nH]c3=O)[C@H](O)[C@@H]2O)O[C@H](CO)[C@H](O)[C@@H]1O [UDP-GalNAc]
glycosyl transfer, MALDI-TOF/MS (B3GALNT2dTM): incubated this protein with UDPGalNAc and the GlcNAc-β4-Man-O-peptide produced by the GTDC2dTM reaction
